Laboratory results published in PubChem BioAssay AID248 (DTP/NCI, 2004).
“And” between values parts separate entries of the source, which are not always exact repeats. Equal values may be shown once. Toxic doses and inconclusive results are not listed. Rule as the data show it: active = T/C of 150% or more; inactive = T/C below 125%.

System: L1210 leukemia ip in BDF1 mice, survival T/C
Assay: NCI In Vivo Anticancer Drug Screen. Data for tumor model L1210 Leukemia (intraperitoneal) in B6D2F1 (BDF1) mice
Details: higher = longer survival
Procedure, shortened: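 Value reflects the ratio of survival in compound-treated mice to survival in vehicle-treated controls, with both groups carrying the same transplanted tumor.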

Measured: T/C

CC[C@](O)(C(=O)O)c1cc2n(c(=O)c1CO)Cc1cc3ccccc3nc1-2
inactive: endpoint: mean survival time, dose: 0.12 mg/kg/injection, schedule: Q#A X Z (ip), vehicle: saline 106 % of control | endpoint: mean survival time, dose: 0.18 mg/kg/injection, schedule: Q01DX009 (ip), vehicle: saline 105 % of control and 108 % of control | endpoint: mean survival time, dose: 0.25 mg/kg/injection, schedule: Q01DX006 (iv), vehicle: saline 107 % of control | endpoint: mean survival time, dose: 0.25 mg/kg/injection, schedule: Q01DX009 (ip), vehicle: saline 98 % of control | endpoint: mean survival time, dose: 0.25 mg/kg/injection, schedule: Q01DX010 (ip), vehicle: saline 117 % of control | endpoint: mean survival time, dose: 0.25 mg/kg/injection, schedule: Q01DX Z (im), vehicle: saline 107 % of control | endpoint: mean survival time, dose: 0.25 mg/kg/injection, schedule: Q01DX Z (sc), vehicle: saline 107 % of control | endpoint: mean survival time, dose: 0.25 mg/kg/injection, schedule: Q## X Z (ip), vehicle: saline 97 % of control | endpoint: mean survival time, dose: 0.25 mg/kg/injection, schedule: Q#A X Z (ip), vehicle: saline 114 % of control | endpoint: mean survival time, dose: 0.35 mg/kg/injection, schedule: Q01DX009 (ip), vehicle: saline 106 % of control and 113 % of control | endpoint: mean survival time, dose: 0.5 mg/kg/injection, schedule: Q01DX006 (iv), vehicle: saline 103 % of control | endpoint: mean survival time, dose: 0.5 mg/kg/injection, schedule: Q01DX009 (ip), vehicle: saline 104 % of control and 112 % of control | endpoint: mean survival time, dose: 0.5 mg/kg/injection, schedule: Q01DX009 (oral), vehicle: water 97 % of control | endpoint: mean survival time, dose: 0.5 mg/kg/injection, schedule: Q01DX Z (im), vehicle: saline 108 % of control | endpoint: mean survival time, dose: 0.5 mg/kg/injection, schedule: Q01DX Z (ip), vehicle: saline 122 % of control | endpoint: mean survival time, dose: 0.5 mg/kg/injection, schedule: Q01DX Z (oral), vehicle: saline 105 % of control | endpoint: mean survival time, dose: 0.5 mg/kg/injection, schedule: Q01DX Z (sc), vehicle: saline 107 % of control | endpoint: mean survival time, dose: 0.5 mg/kg/injection, schedule: Q## X Z (ip), vehicle: saline 103 % of control | endpoint: mean survival time, dose: 0.7 mg/kg/injection, schedule: Q01DX009 (ip), vehicle: saline 106 % of control and 108 % of control | endpoint: mean survival time, dose: 0.75 mg/kg/injection, schedule: Q03DX Z (ip), vehicle: saline 101 % of control | endpoint: mean survival time, dose: 1.0 mg/kg/injection, schedule: Q01DX006 (iv), vehicle: saline 111 % of control | endpoint: mean survival time, dose: 1.0 mg/kg/injection, schedule: Q01DX009 (ip), vehicle: saline 111 % of control and 112 % of control | endpoint: mean survival time, dose: 1.0 mg/kg/injection, schedule: Q01DX009 (oral), vehicle: water 113 % of control | endpoint: mean survival time, dose: 1.0 mg/kg/injection, schedule: Q01DX Z (im), vehicle: saline 113 % of control | endpoint: mean survival time, dose: 1.0 mg/kg/injection, schedule: Q01DX Z (oral), vehicle: saline 117 % of control | endpoint: mean survival time, dose: 1.0 mg/kg/injection, schedule: Q01DX Z (sc), vehicle: saline 113 % of control | endpoint: mean survival time, dose: 1.0 mg/kg/injection, schedule: Q## X Z (ip), vehicle: saline 114 % of control | endpoint: mean survival time, dose: 1.3 mg/kg/injection, schedule: Q## X008 (ip), vehicle: saline 102 % of control | endpoint: mean survival time, dose: 1.5 mg/kg/injection, schedule: Q03DX Z (ip), vehicle: saline 109 % of control | endpoint: mean survival time, dose: 2.0 mg/kg/injection, schedule: Q01DX001 (ip), vehicle: saline 106 % of control and 113 % of control (2×) | endpoint: mean survival time, dose: 2.0 mg/kg/injection, schedule: Q01DX006 (iv), vehicle: saline 114 % of control and 122 % of control | endpoint: mean survival time, dose: 2.0 mg/kg/injection, schedule: Q01DX010 (ip), vehicle: saline 110 % of control | endpoint: mean survival time, dose: 2.0 mg/kg/injection, schedule: Q01DX010 (oral), vehicle: saline 97 % of control | endpoint: mean survival time, dose: 2.0 mg/kg/injection, schedule: Q01DX Z (im), vehicle: saline 116 % of control | endpoint: mean survival time, dose: 2.0 mg/kg/injection, schedule: Q01DX Z (sc), vehicle: saline 114 % of control and 120 % of control | endpoint: mean survival time, dose: 2.0 mg/kg/injection, schedule: Q07DX Z (ip), vehicle: saline 109 % of control | endpoint: mean survival time, dose: 2.5 mg/kg/injection, schedule: Q01DX001 (oral), vehicle: water 111 % of control | endpoint: mean survival time, dose: 2.5 mg/kg/injection, schedule: Q04DX002 (ip), vehicle: saline 100 % of control and 108 % of control | endpoint: mean survival time, dose: 2.5 mg/kg/injection, schedule: Q04DX003 (ip), vehicle: saline 110 % of control | endpoint: mean survival time, dose: 2.5 mg/kg/injection, schedule: Q## X003 (ip), vehicle: saline 105 % of control and 109 % of control | endpoint: mean survival time, dose: 2.5 mg/kg/injection, schedule: Q## X003 (oral), vehicle: saline 107 % of control | endpoint: mean survival time, dose: 2.5 mg/kg/injection, schedule: Q## X003 (oral), vehicle: water 107 % of control | endpoint: mean survival time, dose: 2.5 mg/kg/injection, schedule: Q## X008 (ip), vehicle: saline 98 % of control | endpoint: mean survival time, dose: 2.6 mg/kg/injection, schedule: Q## X024 (ip), vehicle: saline 101 % of control | endpoint: mean survival time, dose: 2.6 mg/kg/injection, schedule: Q## X024 (oral), vehicle: water 100 % of control | endpoint: mean survival time, dose: 3.0 mg/kg/injection, schedule: Q01DX Z (sc), vehicle: saline 120 % of control | endpoint: mean survival time, dose: 3.0 mg/kg/injection, schedule: Q03DX Z (ip), vehicle: saline 118 % of control | endpoint: mean survival time, dose: 4.0 mg/kg/injection, schedule: Q01DX001 (ip), vehicle: saline 105 % of control and 110 % of control and 116 % of control | endpoint: mean survival time, dose: 4.0 mg/kg/injection, schedule: Q01DX009 (oral), vehicle: water 120 % of control | endpoint: mean survival time, dose: 4.0 mg/kg/injection, schedule: Q01DX Z (ip), vehicle: saline 97 % of control and 116 % of control | endpoint: mean survival time, dose: 4.0 mg/kg/injection, schedule: Q01DX Z (oral), vehicle: saline 101 % of control | endpoint: mean survival time, dose: 4.5 mg/kg/injection, schedule: Q01DX006 (iv), vehicle: saline 122 % of control | endpoint: mean survival time, dose: 4.5 mg/kg/injection, schedule: Q01DX Z (im), vehicle: saline 93 % of control | endpoint: mean survival time, dose: 5.0 mg/kg/injection, schedule: Q01DX001 (oral), vehicle: water 115 % of control | endpoint: mean survival time, dose: 5.0 mg/kg/injection, schedule: Q04DX002 (ip), vehicle: saline 110 % of control and 113 % of control | endpoint: mean survival time, dose: 5.0 mg/kg/injection, schedule: Q04DX003 (ip), vehicle: saline 116 % of control | endpoint: mean survival time, dose: 5.0 mg/kg/injection, schedule: Q04DX003 (ip), vehicle: water 118 % of control and 120 % of control | endpoint: mean survival time, dose: 5.0 mg/kg/injection, schedule: Q## X003 (ip), vehicle: saline 114 % of control | endpoint: mean survival time, dose: 5.0 mg/kg/injection, schedule: Q## X003 (oral), vehicle: water 121 % of control | endpoint: mean survival time, dose: 5.0 mg/kg/injection, schedule: Q## X008 (ip), vehicle: saline 105 % of control | endpoint: mean survival time, dose: 5.0 mg/kg/injection, schedule: Q## X024 (ip), vehicle: saline 120 % of control | endpoint: mean survival time, dose: 6.0 mg/kg/injection, schedule: Q01DX001 (ip), vehicle: saline 110 % of control | endpoint: mean survival time, dose: 6.5 mg/kg/injection, schedule: Q01DX006 (iv), vehicle: saline 112 % of control | endpoint: mean survival time, dose: 6.5 mg/kg/injection, schedule: Q01DX Z (sc), vehicle: saline 105 % of control | endpoint: mean survival time, dose: 8.0 mg/kg/injection, schedule: Q01DX001 (ip), vehicle: saline 105 % of control and 115 % of control | endpoint: mean survival time, dose: 8.0 mg/kg/injection, schedule: Q01DX009 (ip), vehicle: saline 120 % of control | endpoint: mean survival time, dose: 10.0 mg/kg/injection, schedule: Q01DX001 (ip), vehicle: saline 112 % of control | endpoint: mean survival time, dose: 10.0 mg/kg/injection, schedule: Q## X008 (ip), vehicle: saline 117 % of control | endpoint: mean survival time, dose: 10.0 mg/kg/injection, schedule: Q## X008 (oral), vehicle: water 121 % of control | endpoint: mean survival time, dose: 19.0 mg/kg/injection, schedule: Q03DX Z (ip), vehicle: saline 121 % of control | endpoint: mean survival time, dose: 50.0 mg/kg/injection, schedule: Q04DX003 (ip), vehicle: saline 105 % of control | endpoint: mean survival time, dose: 80.0 mg/kg/injection, schedule: Q04DX003 (ip), vehicle: saline 114 % of control | endpoint: mean survival time, dose: 160.0 mg/kg/injection, schedule: Q## X003 (ip), vehicle: saline 110 % of control | endpoint: mean survival time, dose: 125.0 micrograms/kg/injection, schedule: Q01DX Z (ip), vehicle: saline 111 % of control | endpoint: mean survival time, dose: 250.0 micrograms/kg/injection, schedule: Q01DX Z (ip), vehicle: saline 114 % of control | endpoint: median survival time, dose: 5.0 mg/kg/injection, schedule: Q04DX003 (ip), vehicle: saline 122 % of control | endpoint: median survival time, dose: 50.0 mg/kg/injection, schedule: Q01DX001 (ip), vehicle: saline 110 % of control and 119 % of control | endpoint: median survival time, dose: 83.3 mg/kg/injection, schedule: Q04DX003 (ip), vehicle: saline 110 % of control and 121 % of control | endpoint: median survival time, dose: 100.0 mg/kg/injection, schedule: Q04DX003 (ip), vehicle: saline 94 % of control and 116 % of control | endpoint: median survival time, dose: 148.0 mg/kg/injection, schedule: Q01DX001 (ip), vehicle: saline 115 % of control

Cn1c(=O)c2[nH]c(-c3ccc4c(c3)OCO4)nc2n(C)c1=O
inactive: endpoint: mean survival time, dose: 50.0 mg/kg/injection, schedule: Q01DX001 (ip), vehicle: other 95 % of control | endpoint: mean survival time, dose: 100.0 mg/kg/injection, schedule: Q01DX001 (ip), vehicle: other 97 % of control | endpoint: mean survival time, dose: 200.0 mg/kg/injection, schedule: Q01DX001 (ip), vehicle: other 95 % of control | endpoint: mean survival time, dose: 400.0 mg/kg/injection, schedule: Q01DX001 (ip), vehicle: other 86 % of control

CCOC1CC2CN(C)C1c1ccccc12 (configuration not stated)
inactive: endpoint: mean survival time, dose: 100.0 mg/kg/injection, schedule: Q04DX003 (ip), vehicle: saline 97 % of control | endpoint: mean survival time, dose: 200.0 mg/kg/injection, schedule: Q04DX003 (ip), vehicle: saline 97 % of control | endpoint: mean survival time, dose: 400.0 mg/kg/injection, schedule: Q04DX003 (ip), vehicle: saline 101 % of control
